Reference: ChEMBL document CHEMBL1201862, “PubChem BioAssay data set” (2004)
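1) Cells in 96-well plates. 2) Compound, 48 h, 5 concentrations. 3) Linear interpolation between surrounding doses. 4) Unreached endpoint = highest concentration. Abbreviation: GI50, concentration required for 50% inhibition of growth.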 Active and inactive are the calls of the source. Cut-off read from the data, not from the text of the source: active = GI50 up to about 1.1 µM and inactive = higher.

Experiments:
Assay in all cases: NCI anticancer screen, dose series, 48 h
IGROV-1 = system: IGROV-1
K562 = system: K562
MDA-MB-231 = system: MDA-MB-231
BT-549 = system: BT-549
EKVX = system: EKVX
MOLT-4 = system: MOLT-4
SW-620 = system: SW-620
SNB-19 = system: SNB-19
OVCAR-3 = system: OVCAR-3
SK-MEL-5 = system: SK-MEL-5
HT-29 = system: HT-29
SR = system: SR
RPMI-8226 = system: RPMI-8226
Malme-3M = system: Malme-3M
COLO 205 = system: COLO 205
NCI-H23 = system: NCI-H23
SF-295 = system: SF-295
NCI/ADR-RES = system: NCI/ADR-RES
NCI-H226 = system: NCI-H226
SF-268 = system: SF-268

CCOC(=O)c1sc2nc(SC)nc3c2c1N=CN3c1ccc(Br)cc1
GI50 (IGROV-1): > 100 µM (inactive)
GI50 (K562): > 100 µM (inactive)
GI50 (MDA-MB-231): > 100 µM (inactive)
GI50 (BT-549): > 100 µM (inactive)
GI50 (EKVX): > 100 µM (inactive)
GI50 (MOLT-4): > 100 µM (inactive)
GI50 (SW-620): > 100 µM (inactive)
GI50 (SNB-19): > 100 µM (inactive)
GI50 (OVCAR-3): 24.8 µM (inactive)
GI50 (SK-MEL-5): > 100 µM (inactive)
GI50 (HT-29): > 100 µM (inactive)
GI50 (SR): > 100 µM (inactive)
GI50 (RPMI-8226): > 100 µM (inactive)
GI50 (Malme-3M): > 100 µM (inactive)
GI50 (COLO 205): > 100 µM (inactive)
GI50 (NCI-H23): > 100 µM (inactive)
GI50 (SF-295): > 100 µM (inactive)
GI50 (NCI/ADR-RES): > 100 µM (inactive)
GI50 (NCI-H226): > 100 µM (inactive)

CSc1c(C#N)c(S)n(-c2ccc(Cl)cc2)c(=O)c1C#N
GI50 (IGROV-1): 80.7 µM (inactive)
GI50 (K562): 63 µM (inactive)
GI50 (MDA-MB-231): > 100 µM (inactive)
GI50 (BT-549): > 100 µM (inactive)
GI50 (EKVX): > 100 µM (inactive)
GI50 (MOLT-4): 44.2 µM (inactive)
GI50 (SW-620): > 100 µM (inactive)
GI50 (SNB-19): > 100 µM (inactive)
GI50 (OVCAR-3): > 100 µM (inactive)
GI50 (SK-MEL-5): 83.9 µM (inactive)
GI50 (HT-29): 99.3 µM (inactive)
GI50 (SR): 33 µM (inactive)
GI50 (RPMI-8226): 38.7 µM (inactive)
GI50 (Malme-3M): > 100 µM (inactive)
GI50 (SF-268): > 100 µM (inactive)
GI50 (COLO 205): > 100 µM (inactive)
GI50 (NCI-H23): 39.6 µM (inactive)
GI50 (NCI/ADR-RES): 39.8 µM (inactive)
GI50 (NCI-H226): 48.9 µM (inactive)

O=S(=O)(c1ccccc1)c1cccc2c1NCCC2
GI50 (IGROV-1): 52.5 µM (inactive)
GI50 (K562): 35.6 µM (inactive)
GI50 (MDA-MB-231): 39.6 µM (inactive)
GI50 (BT-549): 20.8 µM (inactive)
GI50 (EKVX): 58.3 µM (inactive)
GI50 (MOLT-4): 28.7 µM (inactive)
GI50 (SW-620): 40.7 µM (inactive)
GI50 (SNB-19): 39.2 µM (inactive)
GI50 (OVCAR-3): 50.7 µM (inactive)
GI50 (SK-MEL-5): 23.2 µM (inactive)
GI50 (HT-29): 37.8 µM (inactive)
GI50 (SR): 38.3 µM (inactive)
GI50 (RPMI-8226): 56.1 µM (inactive)
GI50 (Malme-3M): 29.1 µM (inactive)
GI50 (SF-268): 72.1 µM (inactive)
GI50 (COLO 205): > 10 µM (inactive)
GI50 (SF-295): 31 µM (inactive)
GI50 (NCI/ADR-RES): 38.5 µM (inactive)
GI50 (NCI-H226): 49.9 µM (inactive)

Cc1cc2c(c3c1c1ccccc1n3C)C(=O)C=CC2=O
GI50 (IGROV-1): 39.6 µM (inactive)
GI50 (K562): 3.15 µM (inactive)
GI50 (MDA-MB-231): 25.7 µM (inactive)
GI50 (BT-549): 14.1 µM (inactive)
GI50 (EKVX): > 75.5 µM (inactive)
GI50 (MOLT-4): 2 µM (inactive)
GI50 (SW-620): 7.6 µM (inactive)
GI50 (SNB-19): 63.7 µM (inactive)
GI50 (OVCAR-3): 11.5 µM (inactive)
GI50 (SK-MEL-5): 32.3 µM (inactive)
GI50 (HT-29): 31 µM (inactive)
GI50 (SR): 0.885 µM (active)
GI50 (RPMI-8226): 2.82 µM (inactive)
GI50 (Malme-3M): 28.3 µM (inactive)
GI50 (SF-268): 23.9 µM (inactive)
GI50 (COLO 205): 29.1 µM (inactive)
GI50 (NCI-H23): 10.7 µM (inactive)
GI50 (SF-295): 32.4 µM (inactive)
GI50 (NCI/ADR-RES): 35.8 µM (inactive)
GI50 (NCI-H226): 40.3 µM (inactive)
